Measured values from patent publication US9732088B2, “C2-carbocyclic iminothiazine dioxides as BACE inhibitors, compositions, and their use” (Merck Sharp & Dohme Corp., priority 2014, dated 2017).

Assays:
HepG2 cells = assay: In Vitro Phospholipidosis Assay; format: cell-based; conditions: 20 μM, 24 hours, normalized to DMSO
Description: [formula] Assay 7: In Vitro Phospholipidosis Assay
Drug-induced phospholipidosis (PL) is characterized by intracellular accumulation of phospholipids with lamellular bodies, and may result from impaired phospholipid metabolism in the lysosome (Anderson et al., 2006, FEBS Letter, 580, 5533-5540), and many compounds known to cause drug-induced PL are also associated with adverse drug reactions. Using a method described in the literature (Bhandari et al., 2008, Assay and Drug Dev. Tech., 6(3), 407-419), an in vitro cellular assay can provide data that can determine the PL potential of test compounds. In this assay, compounds that lower values for mean inclusion count of a fluorescent phospholipid (described below) versus control are associated with reduced potential for PL.
HepG2 cells were dispensed into 96-well collagen I coated plates at an initial density of 2.0×10^5 cells in 200 μL complete culturing medium (MEM Media w/Earle's Balanced Salt Solution supplemented with 10 IU penicillin, 10 μg/mL streptomycin, and 10% heat inactivated fetal bovine serum). Cells were incubated overnight at 37° C. with 5% CO2, 89% humidity prior to treatment.
A solution of fluorescently labeled phospholipid N-(7-nitrobenz-2-oxa-1,3-diazol-4-yl)-1,2-dihexadecanoyl-sn-glycero-3-phosphoethanolamine (NBD-PE) was prepared at a concentration of 10 mM in absolute ethanol. Dissolution of the NBD-PE was facilitated by sonication in a room temperature water bath for 30 minutes. NBD-PE medium was prepared by diluting NBD-PE stock to a final concentration of 50 μM in complete culturing medium, filtering (pore size, 0.22 μm) prior to use.
Compound treatment stocks were prepared in dimethyl sulfoxide at 500× final concentrations. Working treatment solutions were prepared by diluting compound stocks into NBD-PE medium with DMSO serving as the vehicle control. Treatment concentration was 20 μM. Amiodarone ((2-{4-[(2-butyl-1-benzofuran-3-yl)carbonyl]-2,6-diiodophenoxy}ethyl)diethylamine) served as the assay positive control at the same concentration. All treatments were tested in triplicate for 24 hours.
Following treatment, cultures were rinsed once with Hank's Balanced Salt Solution (HBSS) containing no phenol red. Cultures were then incubated for 30 minutes at 37° C. with […] Hoechst 33342 nuclear stain and […] cell tracker orange cytoplasm stain. After incubation, cells were rinsed once with HBSS and then fixed in 2% formalin solution.
Cultures were imaged using the IN Cell Analyzer 2000 imaging system. One set of images were acquired with the 4× objective using the appropriate Hoechst filter settings to acquire a full-well cell count. Another set of images were acquired to evaluate treatment-related phospholipidosis with the 20× objective.
Images were analyzed using custom algorithms created in the IN Cell Workstation software using NBD-PE inclusion count in the cell cytoplasm as and endpoint associated with phospholipidosis. Data were expressed as fold over control, normalized to the DMSO vehicle control response.

BACE-1 = BACE-1 (Homo sapiens (Human), UniProt P56817); conditions: data reported in US′109; read-out: BACE-1 Ki (nM) (ii) Data reported in US′109; cited from earlier work
CSF Aβ40 = conditions: cited from earlier work

Chain of BACE-1 (P56817 46-501, species assumed): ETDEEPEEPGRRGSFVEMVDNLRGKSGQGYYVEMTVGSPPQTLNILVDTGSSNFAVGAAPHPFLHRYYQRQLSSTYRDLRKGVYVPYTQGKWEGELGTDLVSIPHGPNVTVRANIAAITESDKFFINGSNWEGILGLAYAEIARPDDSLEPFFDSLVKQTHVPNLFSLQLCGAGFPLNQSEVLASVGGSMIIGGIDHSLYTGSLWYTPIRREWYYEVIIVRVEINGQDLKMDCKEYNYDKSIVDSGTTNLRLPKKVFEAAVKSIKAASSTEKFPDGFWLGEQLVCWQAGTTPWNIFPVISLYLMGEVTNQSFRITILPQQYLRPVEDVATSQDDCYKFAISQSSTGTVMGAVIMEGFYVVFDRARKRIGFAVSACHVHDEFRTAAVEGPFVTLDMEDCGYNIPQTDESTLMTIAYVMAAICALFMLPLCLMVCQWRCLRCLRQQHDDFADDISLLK

SMILES | In Vitro Phospholipidosis Assay: Mean NBD-PE Inclusion Count (Fold over control) (HepG2 cells) | Ki (BACE-1) [nM] | Aβ reduction in vivo in rat (Δ% CSF Aβ40 @ 10 mpk) (ii) Data reported in US′109 (CSF Aβ40) [%]
COc1cnc2c(Nc3ccc(F)c([C@]4(C)CS(=O)(=O)C(C)(C)C(N)=N4)c3)nccc2n1 [Ex 47 of WO2014059185, reference compound] | 13 | 2.9 | −82
COc1cnc2c(Nc3ccc(F)c([C@]4(C)CS(=O)(=O)[C@@](C)(C5CC5)C(N)=N4)c3)ncnc2n1 [Example 22, (2S,5R)-2-cyclopropyl-5-(2-fluoro-5-((7-methoxypteridin-4-yl)amino)phenyl)-3-imino-2,5-dimethylthiomorpholine 1,1-dioxide] | 0.9 | – | –
C[C@@]1(c2nc(Nc3nccc4cc(C#N)cnc34)ncc2F)CS(=O)(=O)[C@@](C)(C2CC2)C(N)=N1 [Example 5, 8-({4-[(3R,6S)-6-cyclopropyl-5-imino-3,6-dimethyl-1,1-dioxidothiomorpholin-3-yl]-5-fluoropyrimidin-2-yl}amino)-1,7-naphthyridine-3-carbonitrile] | 1.3 | – | –
COc1cnc2c(Nc3cc([C@]4(C)CS(=O)(=O)[C@@](C)(C5CC5)C(N)=N4)c(F)cn3)nccc2c1 [Example 6, N-{4-[(3R,6S)-6-cyclopropyl-5-imino-3,6-dimethyl-1,1-dioxidothiomorpholin-3-yl]-5-fluoropyridin-2-yl}-3-methoxy-1,7-naphthyridin-8-amine] | 3.1 | – | –
